This passage reports Km results from publication PMC7467569, “The Progesterone 5β-Reductase/Iridoid Synthase Family: A Catalytic Reservoir for Specialized Metabolism across Land Plants” (ACS Chemical Biology, 2020).

In experiment [1] the target is T1, Digitalis purpurea 2 (Digitalis purpurea, UniProt D2JSQ9).
T1 construct: gene P5BR2; synthetic gene in pOPINF, N-terminal His6 tag (no cleavage told), E. coli
As to the kind of experiment: NADPH consumption at […] nm. The conditions noted are these: 250 μM NADPH, 50 mM HEPES/NaOH pH 7.0, 100 mM NaCl, 25 °C, 0.1% tetrahydrofuran; read-out: 8-Oxogeranial / KM. Format: biochemical.

For experiment [2], the target named is T2, Catharanthus roseus 5 (PRISE5, ISY) (Catharanthus roseus, UniProt K7WDL7).
T2 construct: codon-optimized gene from earlier study in pOPINF, N-terminal His6 tag (no cleavage told), E. coli
As to the kind of experiment: NADPH consumption at […] nm. The conditions noted are these: read-out: Progesterone / KM; 250 μM NADPH, 50 mM HEPES/NaOH pH 7.0, 100 mM NaCl, 25 °C, 1.5% ethanol. Format: biochemical.

On to `C/C(C=O)=C\CC/C(C)=C/C=O` [8-oxogeranial], for which the Km in experiment [1] turned out to be 17.7 ± 5.9 µM.

With `CC(=O)[C@H]1CC[C@H]2[C@@H]3CCC4=CC(=O)CC[C@]4(C)[C@H]3CC[C@]12C` [progesterone], the Km in experiment [2] turned out to be 28.8 ± 11.5 µM.
